Assays:
[1] = tested on: mPFC slices of AAV-GFP-Tau[R406W] infected mice; experiment: mPFC LTP in mice overexpressing GFP-Tau[R406W]; assay type: cell-based, mouse; conditions: bath application of 0.3 μM DP12; 50-60 min after induction
Description: Prefrontal slices (400 μm) were transferred to a submerged-type recording MC membrane chamber (volume 2 ml; Scientific Systems Design Inc., Mississauga, Ontario, Canada) perfused with oxygenated recording ACSF at a flow rate of 4 ml/min and maintained at room temperature (22-25° C.), unless stated otherwise in the “Results”-section given below. Field EPSPs were evoked and recorded using thin-walled glass electrodes (borosilicate glass, wall thickness 0.188, length 100, and outer diameter 1.5 mm, Hilgenberg, Malsfeld, Germany) filled with recording aCSF in 400 μm-thick mPFC slices. […]
Before LTP induction, basal synaptic transmission was recorded in each slice and the relationship between stimulus intensity and fEPSP slope was measured. […] The supramaximal slope was determined by gradually increasing the stimulation intensity until a population spike in the fEPSP became first visible. […]
LTP was induced by application of five trains of theta-burst stimulation (TBS) with an inter-theta-train interval of 20 s (Brennaman et al., 2011). […] For calculation of the LTP level, the mean fEPSP slope was measured between 50-60 min after TBS delivery, and it was then normalized to mean baseline fEPSP slope during 0-10 min before TBS. Stimulus artifacts in representative fEPSP examples in figures were blanked to facilitate the perception of fEPSPs recorded in the mPFC. […]

5×FAD mice = experiment: Recency test (increased difficulty) in 5×FAD mice; assay type: in vivo, mouse; conditions: intranasal, 0.5 mg/kg DP12 or equimolar
Description: The recency test comprised of two encoding phases followed by a retrieval phase (modified from Nelson et al., 2011). The interval between the encoding phases was 1 h, and the interval between the second encoding phase and the retrieval phase was 10 min, except for experiments in 5×FAD mice when both intervals were 90 min to make the task more difficult. In the first encoding phase, animals were placed into the open field arena and allowed to explore a pair of identical objects for 10 min. Then, a different pair of identical objects was presented in the second encoding phase (10 min total exploration time). During the retrieval phase, two different objects, one object from each encoding phase, were placed into the apparatus and animals were given 10 min to explore them.
Animals were randomly assigned to treatment groups using a randomized block design to counterbalance differences in age. The time of the day when tests were performed for different animals was also counterbalanced between treatment groups using a randomized block design. All measurements and statistical analyses were performed performed blindly, i.e. the tubes containing drugs/vehicle were coded. Exploration was defined as the animal approaching the object at a distance of less than 2 cm. The animal climbing onto the object with both hind- and forelimbs was not considered as exploration. In the same trial, objects were counterbalanced, and between trials, the placements of novel and familiar objects were changed. The objects used in the novel object recognition test were not employed in the recency test. Novelty detection was evaluated by calculating the discrimination ratio as follows: [novel object time−familiar object time]/[novel object time+familiar object time]×100%. In the recency test, the discrimination ratio was calculated as follows: [least recent object time−most recent object time]/[least object time+most recent object time]×100%. Unreliable measurements (about 10%), when animals spent in total ≤10 s near to both objects, were excluded from analysis.
As the recency test was consistently used for analysis of DP12 effects in other mouse models, it was further investigated whether 13- to 14-month-old 5×FAD mice are impaired in this form of memory. In this series of experiments, the intervals between each session during recency test were increased to 90 min to increase the difficulty to recall the temporal order of the two objects shown in the arena (FIG. 12(A)). […] To verify whether DP12 or avDP10-9OAc may improve cognitive function in the 5×FAD model of AD, these compounds or a vehicle (H2O) were intranasally delivered in the same cohort of 5×FAD mice before multiple recency test sessions (separated by 4 day-interval). The numbers of mice in each treatment group during one session were counterbalanced and each mouse received in a random order both drugs and the vehicle. […] In contrast, vehicle-treated 5×FAD mice explored the two objects equally (FIG. 12(C)).

[2] = tested on: CA3-CA1 synapses in slices from 5×FAD mice; experiment: LTP in CA3-CA1 synapses in slices from 5×FAD mice; assay type: cell-based, mouse; conditions: bath application 1 μg/ml (approx. 0.3 μM)
Description: LTP was induced by application of five trains of theta-burst stimulation (TBS) with an inter-theta-train interval of 20 s (Brennaman et al., 2011). Each train consisted of 8 bursts delivered at 5 Hz. Each burst consisted of four pulses delivered at 100 Hz. Duration of pulses was 0.2 ms. For calculation of the LTP level, the mean fEPSP slope was measured between 50-60 min after TBS delivery, and it was then normalized to mean baseline fEPSP slope during 0-10 min before TBS. Stimulus artifacts in representative fEPSP examples in figures were blanked to facilitate the perception of fEPSPs recorded in the mPFC. Recording and analysis of LTP in St8Sia4^−/− mice was performed in a blind manner.
Finally, we tested if DP12 would have an effect in the 5×FAD mouse model of AD associated with amyloidosis and upregulation of extracellular glutamate and signaling through extra synaptic GluN2B receptors. Using a special slice incubation chamber with improved oxygen supply, we were able to induce LTP in CA3-CA1 synapses in slices from 5×FAD mice (FIG. 8).

[3] = tested on: AAV-GFP-Tau[R406W]-injected mice; experiment: Recency test in AAV-GFP-Tau[R406W]-injected mice; assay type: in vivo, mouse; conditions: intranasal delivery
Text: AAVs were produced using the AAV helper free packaging systems AAV-DJ (Cell Biolabs, Inc.). In short, HEK293 cells were transfected with the pAAV-DJ and pHelper constructs along with the viral expression constructs (pAAV vectors) encoding either eGFP or eGFP-Tau[R406W] under the control of a synapsin promotor. After three days, viruses were harvested using freeze-thaw cycles. After lysis, non-viral DNA is digested with Benzonase, and lysate is filtered through a 0.22 μm filter, washed with PBS and concentrated using Amicon Ultra-15 Centrifugal Filter Units with a cut off of 50 kDa. Titers were determined to be >10^10 GC/ml using quantitative Real-Time PCR with primers for the WPRE element in the viral genome.
For stereotaxic delivery of AAVs, mice were anesthetized in a closed chamber using isoflurane (1 ml for 30 s). […]
Animals were randomly assigned to treatment groups using a randomized block design to counterbalance differences in age. […] Novelty detection was evaluated by calculating the discrimination ratio as follows: [novel object time−familiar object time]/[novel object time+familiar object time]×100%. In the recency test, the discrimination ratio was calculated as follows: [least recent object time−most recent object time]/[least object time+most recent object time]×100%. […]

[4] = 2 hours before test, 90 min intervals

Substance: (α(2→8)Neu5Ac)12 [DP12]
- rescue of impaired mPFC LTP [1]: fully rescue LTP
- exploration of least recent versus most recent object in the retrieval phase (5×FAD mice; [4]): clear preference for the least recently explored object
- object discrimination (discrimination ratio) compared to vehicle (5×FAD mice; [4]): significant difference in object discrimination
- number of mice showing discrimination more than 20% (5×FAD mice; n=11 5×FAD mice): 10 of 11
- LTP levels 50-60 min after theta-burst stimulation [2]: strongly increased
- rescue of impaired recent object recognition [3]: fully rescued
